Measurements as given in ChEMBL document CHEMBL5233233, “Histone deacetylase 3 (HDAC3) inhibitors as anticancer agents: A review” (Eur J Med Chem, 2020).

Columns and labels:
Histone deacetylase 1 [1] = molecular target: T1, Histone deacetylase 1 (Homo sapiens, UniProt Q13547); test: Inhibition of human HDAC1 using human HeLa cell nuclear extract at 1 uM measured after 60 mins by fluorescence assay; format: subcellular, Nucleus
Histone deacetylase 2 [2] = molecular target: T2, Histone deacetylase 2 (Homo sapiens, UniProt Q92769); test: Inhibition of human HDAC2 using human HeLa cell nuclear extract at 1 uM measured after 60 mins by fluorescence assay; format: subcellular, Nucleus
Histone deacetylase 3 [3] = molecular target: T3, Histone deacetylase 3 (Homo sapiens, UniProt O15379); test: Inhibition of human HDAC3 using human HeLa cell nuclear extract at 1 uM measured after 60 mins by fluorescence assay; format: subcellular, Nucleus
Histone deacetylase = test: Inhibition of human HDAC using human HeLa cell nuclear extract measured after 60 mins by fluorescence assay; format: subcellular, Nucleus
Histone deacetylase 3 [4] = molecular target: T3, Histone deacetylase 3; test: Inhibition of human HDAC3 using fluorogenic as substrate measured after 30 mins by fluorescence based analysis
Histone deacetylase 1 [5] = molecular target: T1, Histone deacetylase 1; test: Inhibition of human HDAC1 using fluorogenic as substrate measured after 30 mins by fluorescence based analysis
Histone deacetylase 1 [6] = molecular target: T1, Histone deacetylase 1; test: Inhibition of HDAC1 (unknown origin) using acetylated 7-amino-4-methylcoumarin (AMC) as peptide substrate measured after 20 mins by fluorescence based analysis
Histone deacetylase 2 [7] = molecular target: T2, Histone deacetylase 2; test: Inhibition of HDAC2 (unknown origin) using acetylated 7-amino-4-methylcoumarin (AMC) as peptide substrate measured after 20 mins by fluorescence based analysis
Histone deacetylase 3 [8] = molecular target: T3, Histone deacetylase 3; test: Inhibition of HDAC3 (unknown origin) using acetylated 7-amino-4-methylcoumarin (AMC) as peptide substrate measured after 20 mins by fluorescence based analysis
Histone deacetylase 3 [9] = molecular target: T3, Histone deacetylase 3; test: Inhibition of HDAC3 (unknown origin)
Histone deacetylase 8 [10] = molecular target: T4, Histone deacetylase 8 (Homo sapiens, UniProt Q9BY41); test: Inhibition of HDAC8 (unknown origin)
T4 sequence (Q9BY41 whole entry): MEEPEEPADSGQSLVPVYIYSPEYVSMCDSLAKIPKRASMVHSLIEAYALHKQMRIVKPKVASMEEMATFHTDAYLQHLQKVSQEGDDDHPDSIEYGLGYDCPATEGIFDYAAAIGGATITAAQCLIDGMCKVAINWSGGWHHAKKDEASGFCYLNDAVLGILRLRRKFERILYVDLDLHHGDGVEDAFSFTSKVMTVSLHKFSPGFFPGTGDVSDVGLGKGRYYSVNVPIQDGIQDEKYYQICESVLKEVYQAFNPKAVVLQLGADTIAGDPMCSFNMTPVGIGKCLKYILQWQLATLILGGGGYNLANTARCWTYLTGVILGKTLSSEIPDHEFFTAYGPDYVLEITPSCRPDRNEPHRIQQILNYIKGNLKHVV

Histone deacetylase 1 [11] = molecular target: T1, Histone deacetylase 1; test: Inhibition of HDAC1 (unknown origin)
Histone deacetylase 2 [12] = molecular target: T2, Histone deacetylase 2; test: Inhibition of HDAC2 (unknown origin)
Histone deacetylase 1 [13] = molecular target: T1, Histone deacetylase 1; test: Inhibition of HDAC1 (unknown origin) using Boc-Lys (Ac)-AMC as substrate measured after 30 mins by fluorescence based analysis
[14] = molecular target: T5, Protein deacetylase HDAC6 (Homo sapiens, UniProt Q9UBN7); test: Inhibition of HDAC6 (unknown origin) using Boc-Lys (Ac)-AMC as substrate measured after 30 mins by fluorescence based analysis
T5 sequence (Q9UBN7 whole entry): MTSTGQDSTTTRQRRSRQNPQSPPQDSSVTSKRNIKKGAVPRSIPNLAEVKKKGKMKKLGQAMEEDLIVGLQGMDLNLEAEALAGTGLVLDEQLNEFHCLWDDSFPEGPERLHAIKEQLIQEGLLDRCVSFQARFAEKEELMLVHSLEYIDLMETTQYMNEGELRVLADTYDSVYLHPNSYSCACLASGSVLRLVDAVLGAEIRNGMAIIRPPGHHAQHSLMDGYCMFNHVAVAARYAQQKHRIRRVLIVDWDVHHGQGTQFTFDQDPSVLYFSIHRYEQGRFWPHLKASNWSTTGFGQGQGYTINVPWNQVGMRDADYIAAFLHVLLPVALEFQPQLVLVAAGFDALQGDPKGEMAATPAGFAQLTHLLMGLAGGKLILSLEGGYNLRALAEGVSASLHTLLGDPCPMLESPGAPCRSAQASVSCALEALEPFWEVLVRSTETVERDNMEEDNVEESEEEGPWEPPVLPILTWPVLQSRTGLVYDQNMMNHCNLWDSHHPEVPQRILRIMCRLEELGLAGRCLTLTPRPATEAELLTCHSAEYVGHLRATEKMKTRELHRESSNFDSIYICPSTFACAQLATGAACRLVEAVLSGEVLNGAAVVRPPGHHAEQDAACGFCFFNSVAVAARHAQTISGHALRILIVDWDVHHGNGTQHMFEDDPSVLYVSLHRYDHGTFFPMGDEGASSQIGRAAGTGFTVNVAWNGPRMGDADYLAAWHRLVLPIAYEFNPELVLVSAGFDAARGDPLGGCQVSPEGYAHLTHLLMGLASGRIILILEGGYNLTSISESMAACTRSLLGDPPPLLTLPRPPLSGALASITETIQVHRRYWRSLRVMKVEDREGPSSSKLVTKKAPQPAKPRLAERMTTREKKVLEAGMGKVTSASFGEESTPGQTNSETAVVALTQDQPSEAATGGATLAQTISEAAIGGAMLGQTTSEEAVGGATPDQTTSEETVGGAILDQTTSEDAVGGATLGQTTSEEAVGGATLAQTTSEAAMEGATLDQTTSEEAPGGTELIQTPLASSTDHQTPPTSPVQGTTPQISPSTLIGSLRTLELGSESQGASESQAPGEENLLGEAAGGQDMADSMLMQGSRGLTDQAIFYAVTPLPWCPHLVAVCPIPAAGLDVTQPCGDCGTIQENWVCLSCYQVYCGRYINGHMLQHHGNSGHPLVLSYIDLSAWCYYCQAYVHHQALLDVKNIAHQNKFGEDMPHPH

Histone deacetylase 3 [15] = molecular target: T3, Histone deacetylase 3; test: Inhibition of HDAC3 (unknown origin) using Boc-Lys (Ac)-AMC as substrate measured after 30 mins by fluorescence based analysis
Histone deacetylase 3 [16] = molecular target: T3, Histone deacetylase 3; test: Inhibition of human recombinant HDAC3 expressed in baculovirus by using Boc-L-Lys(Ac)-AMC as substrate measured after 24 hrs by fluorescence based analysis
Histone deacetylase 8 [17] = molecular target: T4, Histone deacetylase 8; test: Inhibition of human recombinant HDAC8 expressed in Escherichia coli BL21 (DE3) cells by using Boc-L-Lys(Ac)-AMC as substrate measured after 24 hrs by fluorescence based analysis
Histone deacetylase 2 [18] = molecular target: T2, Histone deacetylase 2; test: Inhibition of human recombinant HDAC2 expressed in baculovirus by using Boc-L-Lys(Ac)-AMC as substrate measured after 24 hrs by fluorescence based analysis
Histone deacetylase 1 [19] = molecular target: T1, Histone deacetylase 1; test: Inhibition of human recombinant HDAC1 expressed in baculovirus by using Boc-L-Lys(Ac)-AMC as substrate measured after 24 hrs by fluorescence based analysis
Histone deacetylase 1 [20] = molecular target: T1, Histone deacetylase 1; test: Inhibition of human recombinant HDAC1 using (FAM)-labeled acetylated peptide substrate at 1 uM incubated for 17 hrs by fluorescence based analysis
[21] = molecular target: T5, Protein deacetylase HDAC6; test: Inhibition of human recombinant HDAC6 using (FAM)-labeled acetylated peptide substrate at 1 uM incubated for 17 hrs by fluorescence based analysis
Histone deacetylase 2 [22] = molecular target: T2, Histone deacetylase 2; test: Inhibition of human recombinant HDAC2 using (FAM)-labeled acetylated peptide substrate at 1 uM incubated for 17 hrs by fluorescence based analysis
Histone deacetylase 8 [23] = molecular target: T4, Histone deacetylase 8; test: Inhibition of human recombinant HDAC8 using (FAM)-labeled acetylated peptide substrate at 1 uM incubated for 17 hrs by fluorescence based analysis

T1 sequence (Q13547 whole entry): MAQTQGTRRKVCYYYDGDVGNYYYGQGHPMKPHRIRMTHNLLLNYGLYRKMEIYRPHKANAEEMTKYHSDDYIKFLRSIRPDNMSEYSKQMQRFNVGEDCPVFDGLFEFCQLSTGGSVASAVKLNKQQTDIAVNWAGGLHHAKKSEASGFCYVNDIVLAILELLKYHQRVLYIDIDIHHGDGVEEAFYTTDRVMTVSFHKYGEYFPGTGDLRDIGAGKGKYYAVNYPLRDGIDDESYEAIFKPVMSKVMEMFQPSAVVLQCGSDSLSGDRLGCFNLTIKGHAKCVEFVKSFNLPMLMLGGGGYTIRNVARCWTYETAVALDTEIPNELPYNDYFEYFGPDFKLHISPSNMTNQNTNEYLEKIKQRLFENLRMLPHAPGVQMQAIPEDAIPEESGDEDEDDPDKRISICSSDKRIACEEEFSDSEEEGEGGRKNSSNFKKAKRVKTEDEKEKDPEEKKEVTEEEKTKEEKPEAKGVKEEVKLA
T3 sequence (O15379 whole entry): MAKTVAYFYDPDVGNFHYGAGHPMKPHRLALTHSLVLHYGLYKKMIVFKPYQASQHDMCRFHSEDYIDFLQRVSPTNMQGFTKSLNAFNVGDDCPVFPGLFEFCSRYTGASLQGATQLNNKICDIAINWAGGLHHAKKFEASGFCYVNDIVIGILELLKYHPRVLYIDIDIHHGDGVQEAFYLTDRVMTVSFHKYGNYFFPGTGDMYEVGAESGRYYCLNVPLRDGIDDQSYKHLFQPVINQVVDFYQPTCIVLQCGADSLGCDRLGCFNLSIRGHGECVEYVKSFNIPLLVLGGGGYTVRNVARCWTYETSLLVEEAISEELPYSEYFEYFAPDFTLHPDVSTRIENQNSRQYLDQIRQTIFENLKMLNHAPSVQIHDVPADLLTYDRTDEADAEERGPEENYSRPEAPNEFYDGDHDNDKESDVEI
T2 sequence (Q92769 whole entry): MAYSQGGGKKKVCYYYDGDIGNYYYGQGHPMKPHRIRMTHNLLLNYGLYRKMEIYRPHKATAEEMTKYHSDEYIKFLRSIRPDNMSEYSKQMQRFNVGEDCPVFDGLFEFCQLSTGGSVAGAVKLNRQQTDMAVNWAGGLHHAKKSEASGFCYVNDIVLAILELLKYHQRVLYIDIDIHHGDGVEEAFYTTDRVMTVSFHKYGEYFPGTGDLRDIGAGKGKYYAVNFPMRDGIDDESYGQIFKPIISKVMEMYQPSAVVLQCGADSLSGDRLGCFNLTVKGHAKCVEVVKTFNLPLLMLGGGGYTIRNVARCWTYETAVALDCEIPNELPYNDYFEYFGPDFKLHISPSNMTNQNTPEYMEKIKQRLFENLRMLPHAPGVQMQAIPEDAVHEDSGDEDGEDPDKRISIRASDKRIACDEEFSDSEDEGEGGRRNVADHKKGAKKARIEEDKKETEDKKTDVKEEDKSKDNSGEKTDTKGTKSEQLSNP

In the case of `Cc1noc(C)c1-c1ccc2c(c1)c(CCc1ccc(F)cc1)cn2CCCCCC(=O)NO`, the IC50 (Histone deacetylase 1 [1]) is reported as 0.259 µM, the IC50 (Histone deacetylase 2 [2]) is reported as 0.946 µM and the IC50 (Histone deacetylase 3 [3]) is reported as 0.017 µM.
With `O=C(NO)c1ccc(NC(=O)[C@@H](NC(=O)c2ccc3ccccc3c2)c2ccccc2)cc1` the IC50 (Histone deacetylase) was 0.0143 µM and the IC50 (Histone deacetylase 3 [4]) was 0.0168 µM.
Molecule `O=C(NO)c1ccc(NC(=O)[C@@H](NC(=O)c2cccc(Br)c2)c2ccccc2)cc1` has an IC50 (Histone deacetylase) of 0.0137 µM, an IC50 (Histone deacetylase 1 [5]) of 0.0118 µM and an IC50 (Histone deacetylase 3 [4]) of 0.0085 µM.
For `Cc1cccc(Cc2cn(CCCCCC(=O)NO)c3ccc(-c4c(C)noc4C)cc23)c1`, the IC50 (Histone deacetylase 1 [1]) was 0.222 µM, the IC50 (Histone deacetylase 2 [2]) was 0.568 µM and the IC50 (Histone deacetylase 3 [3]) was 0.062 µM.
Molecule `Cc1ccccc1CCc1cn(CCCCCC(=O)NO)c2ccc(-c3c(C)noc3C)cc12` has an IC50 (Histone deacetylase 1 [1]) of 0.314 µM, an IC50 (Histone deacetylase 2 [2]) greater than 1 µM and an IC50 (Histone deacetylase 3 [3]) of 0.062 µM.
In the case of `O=C(NNCCCC1CCCC1)c1ccc(Br)cc1`, the IC50 (Histone deacetylase 1 [6]) is reported as greater than 50 µM, the IC50 (Histone deacetylase 2 [7]) is reported as greater than 50 µM and the IC50 (Histone deacetylase 3 [8]) is reported as greater than 50 µM.
`Cc1noc(C)c1-c1ccc2c(c1)c(Cc1ccc(F)cc1)cn2CCCCCCC(=O)NO` showed an IC50 (Histone deacetylase 1 [1]) of 0.181 µM and an IC50 (Histone deacetylase 2 [2]) of 0.298 µM.
Work on `Nc1ccccc1NC(=O)c1ccc(CNc2nc(-c3ccccc3)cs2)cc1` yielded an IC50 (Histone deacetylase 3 [9]) of 0.012 µM, an IC50 (Histone deacetylase 8 [10]) of 4.1 µM and an IC50 (Histone deacetylase 1 [11]) of 0.93 µM. For the same molecule, the IC50 (Histone deacetylase 2 [12]) was 0.085 µM.
`COC(=O)/C=C/c1ccc(OCCCNc2cc3c([nH]c4ccccc43)c(-c3ccc(OC)cc3)n2)c(OC)c1` was tested, and the IC50 (Histone deacetylase 1 [13]) was 0.027 µM, the IC50 [14] was 0.013 µM and the IC50 (Histone deacetylase 3 [15]) was 0.148 µM.
`O=C(NO)c1ccc(NC(=O)[C@@H](NS(=O)(=O)c2cccc3ccccc23)c2ccccc2)cc1` gave an IC50 (Histone deacetylase) of 0.0156 µM.
`O=C(NNCCCc1ccccc1)c1ccc(Br)cc1` gave an IC50 (Histone deacetylase 1 [6]) greater than 50 µM, an IC50 (Histone deacetylase 2 [7]) greater than 50 µM and an IC50 (Histone deacetylase 3 [8]) of 24.2 µM.
Molecule `Cc1noc(C)c1-c1ccc2c(c1)c(Cc1ccc(F)cc1)cn2CCCCCC(=O)NO` has an IC50 (Histone deacetylase 1 [1]) of 0.341 µM, an IC50 (Histone deacetylase 2 [2]) of 0.517 µM and an IC50 (Histone deacetylase 3 [3]) of 0.039 µM.
`O=C(CCCCCCN(Cc1cc2ccccc2[nH]1)Cc1cc2ccccc2[nH]1)NO` showed an IC50 (Histone deacetylase 3 [16]) of 1.3 µM, an IC50 (Histone deacetylase 8 [17]) of 4.6 µM and an IC50 (Histone deacetylase 2 [18]) of 3.7 µM. For the same molecule, the IC50 (Histone deacetylase 1 [19]) was 0.34 µM.
Molecule `COc1ccc(CNCCCCCCC(=O)NO)cc1OC` has an IC50 (Histone deacetylase 3 [16]) of 0.18 µM, an IC50 (Histone deacetylase 8 [17]) of 1.8 µM and an IC50 (Histone deacetylase 2 [18]) of 1.8 µM. For the same molecule, the IC50 (Histone deacetylase 1 [19]) was 0.21 µM.
Work on `COC(=O)/C=C/c1ccc(OCCNc2cc3c([nH]c4ccccc43)c(-c3ccc(OC)cc3)n2)c(OC)c1` yielded an IC50 (Histone deacetylase 1 [13]) of 0.032 µM, an IC50 [14] of 0.017 µM and an IC50 (Histone deacetylase 3 [15]) of 0.125 µM.
In the case of `Cc1ccccc1Cc1cn(CCCCCCC(=O)NO)c2ccc(-c3c(C)noc3C)cc12`, the IC50 (Histone deacetylase 1 [1]) is reported as 0.22 µM, the IC50 (Histone deacetylase 2 [2]) is reported as greater than 1 µM and the IC50 (Histone deacetylase 3 [3]) is reported as 0.05 µM.
For `O=C(CCCCCCN(Cc1ccc(-c2ccccc2)s1)Cc1ccc(-c2ccccc2)s1)NO`, the IC50 (Histone deacetylase 3 [16]) was 1.1 µM, the IC50 (Histone deacetylase 8 [17]) was 4.1 µM and the IC50 (Histone deacetylase 2 [18]) was 3 µM. For the same molecule, the IC50 (Histone deacetylase 1 [19]) was 0.84 µM.
Work on `Cc1cccc(Cc2cn(CCCCCCC(=O)NO)c3ccc(-c4c(C)noc4C)cc23)c1` yielded an IC50 (Histone deacetylase 1 [1]) of 0.253 µM, an IC50 (Histone deacetylase 2 [2]) of 0.127 µM and an IC50 (Histone deacetylase 3 [3]) of 0.024 µM.
With `Nc1ccccc1NC(=O)CCCCCCC(=O)Nc1cccc(-c2cn(-c3ccccc3)nn2)c1` the IC50 (Histone deacetylase 1 [20]) was greater than 30 µM, the IC50 [21] was greater than 30 µM and the IC50 (Histone deacetylase 2 [22]) was greater than 30 µM. The IC50 (Histone deacetylase 8 [23]) was greater than 30 µM.
